Experimental data: patent publication US20240350447A1, “DELIVERY METHODS FOR TREATING BRAIN AND CENTRAL NERVOUS SYSTEM DISEASES” (JENIVISION INC., priority 2021, published 2024)
Where “and” joins values, the source holds several entries; their conditions need not be identical. Identical values can stand only once. Like-named read-outs stand apart in the source and are kept apart here.

How the values were obtained:
[1] = Biodistribution of DHA after periorbital skin (NIODP) application to one eye; format: in vivo, Cynomolgus monkeys; conditions: for DHA in cornea / DHA in upper eyelid / DHA in vitreous humor / Retina/Upper eyelid ratio of DHA / concentration at 0.5 h / concentration at 3 h / concentration at 6 h / concentration at 24 h / concentration at 0 h / OD/OS retina ratio of DHA: 6755.1 μg to OS via NIODP; for concentration at 0.5 h / concentration at 3 h / concentration at 6 h / concentration at 24 h / concentration at 0 h / Kp: cynomolgus monkey; for OD/OS retina ratio of DHA: undosed/dosed retina
Description: An experiment was performed to determine the biodisposition of DHA following topical application to the periorbital skin that surrounds the anterior portion of the globe was performed.
Docosahexaenoic acid (DHA) is an omega-3 fatty acid and an essential component for neuronal formation, function and protection. […] […] High concentrations of DHA (from 35.6 to 97.3 μg/g) were detected in the undoes retina, which is similar to the dosed retina.
Moreover, compared to the baseline retina/plasma ratio of 7-fold, and with no significant changes in plasma, the retina/plasma ratios of DHA in the undosed eye were at least 30-fold at each post dose timepoint, signifying that the undosed retina uptake of DHA was not from blood circulation.

[2] = Baseline endogenous levels of DHA in monkeys; format: in vivo; conditions: no NIODP dosing
Text: The endogenous levels DHA is originated from normal diet and not attributable to NIODP administration.

[3] = Baseline endogenous levels of DHA, DHA-EE and JV-DE1; format: in vivo; conditions: undosed Bama minipigs
Description: Endogenous levels were measured in the plasma, cerebrospinal fluid, ocular tissues (retina, optic nerve, ocular muscles), and brain. The endogenous levels DHA are not attributable to NIODP administration of DHA, DHA-EE, or JV-DE1. The baseline data collected in Table 4 was taken from the same lot of pigs, from the same vendor, as the information collected in Tables 5-7.

[4] = DHA distribution after single periorbital skin administration; format: in vivo, Bama minipigs; conditions: for concentration at 3 h: Bama, minipig, topical, 6092 μg/eye
Description: In this example, 6092 μg/eye of DHA was applied to the periorbital skin of a left eye of a Bama minipig. […] 27133.8 ng/g of tissue and 24795.8 ng/g of tissue of DHA was measured in the left and right halves of the brain, respectively. Taking the average of these two numbers, the amount of DHA present in the brain 3 hours post-dosage was 25964.9 ng/g.
Given that the average Bama pig brain weighs around 60 g, the amount of DHA delivered to the brain can be estimated to be 312,408 ng or 312 μg. Therefore, the percentage of administered dose=312 μg delivered to brain/6092 μg dosed=5.1% of DHA topically administered to the pig via periorbital administration was delivered to the brain. As a comparison, only about 0.025% of DHA that is orally administered is delivered to the brain or CNS.

[5] = oral administration; comparison value; cited from earlier work
[6] = OD (undosed eye), 0 h (baseline)
[7] = 3 h, DHA 6092 μg to periorbital skin of left eye

DHA in the undosed right cornea and vitreous humor ([1]; DHA to OS via NIODP): No DHA was detectable
DHA in cornea [1, 6]: BLQ
DHA in upper eyelid [1, 6]: BLQ
DHA in vitreous humor [1, 6]: BLQ
Retina/Upper eyelid ratio of DHA ([1]; OD (undosed eye), 0.5 h): 172%
Retina/Upper eyelid ratio of DHA ([1]; OD (undosed eye), 3 h): 1678%
Retina/Upper eyelid ratio of DHA ([1]; OD (undosed eye), 6 h): 1057%
Retina/Upper eyelid ratio of DHA ([1]; OD (undosed eye), 24 h): 672%
DHA in cornea ([1]; OS (dosed eye), 0 h (baseline)): BLQ
DHA in upper eyelid ([1]; OS (dosed eye), 0 h (baseline)): BLQ
DHA in vitreous humor ([1]; OS (dosed eye), 0 h (baseline)): BLQ
Retina/Upper eyelid ratio of DHA ([1]; OS (dosed eye), 0.5 h): 29%
Retina/Upper eyelid ratio of DHA ([1]; OS (dosed eye), 3 h): 16%
Retina/Upper eyelid ratio of DHA ([1]; OS (dosed eye), 6 h): 735%
Retina/Upper eyelid ratio of DHA ([1]; OS (dosed eye), 24 h): 292%
concentration at 0.5 h ([1]; cornea of the undosed right eye (OD), topical, OD (undosed eye), 0.5 h, read-out: DHA in cornea): 0 ng/g
concentration at 3 h ([1]; cornea of the undosed right eye (OD), topical, OD (undosed eye), 3 h, read-out: DHA in cornea): 0 ng/g
concentration at 6 h ([1]; cornea of the undosed right eye (OD), topical, OD (undosed eye), 6 h, read-out: DHA in cornea): 0 ng/g
concentration at 24 h ([1]; cornea of the undosed right eye (OD), topical, OD (undosed eye), 24 h, read-out: DHA in cornea): 0 ng/g
concentration at 0 h ([1]; plasma, topical, 0 h (baseline), read-out: DHA in plasma): 2400 ng/mL
concentration at 0.5 h ([1]; plasma, topical, 0.5 h post dose, read-out: DHA in plasma): 2200 ng/mL
concentration at 3 h ([1]; plasma, topical, 3 h post dose, read-out: DHA in plasma): 3100 ng/mL
concentration at 6 h ([1]; plasma, topical, 6 h post dose, read-out: DHA in plasma): 2100 ng/mL
concentration at 24 h ([1]; plasma, topical, 24 h post dose, read-out: DHA in plasma): 1200 ng/mL
Kp ([1]; retina / plasma, baseline (before dosing), read-out: Baseline retina/plasma ratio of DHA): 7
concentration at 0 h ([1]; retina of the dosed left eye (OS), topical, OS (dosed eye), 0 h (baseline), read-out: DHA in retina): 16500 ng/g
Kp ([1]; retina of the undosed eye / plasma, topical, 6775.1 μg/eye, each post dose timepoint, DHA to OS via NIODP, read-out: Retina/plasma ratio of DHA in the undosed eye): ≥ 30
concentration at 0 h ([1]; retina of the undosed right eye (OD), topical, OD (undosed eye), 0 h (baseline), read-out: DHA in retina): 16500 ng/g
concentration at 0.5 h ([1]; retina of the undosed right eye (OD), topical, OD (undosed eye), 0.5 h, read-out: DHA in retina): 70800 ng/g
concentration at 3 h ([1]; retina of the undosed right eye (OD), topical, OD (undosed eye), 3 h, read-out: DHA in retina): 97300 ng/g
concentration at 6 h ([1]; retina of the undosed right eye (OD), topical, OD (undosed eye), 6 h, read-out: DHA in retina): 78200 ng/g
concentration at 24 h ([1]; retina of the undosed right eye (OD), topical, OD (undosed eye), 24 h, read-out: DHA in retina): 35600 ng/g
concentration at 0.5 h ([1]; upper eyelid of the undosed right eye (OD), topical, OD (undosed eye), 0.5 h, read-out: DHA in upper eyelid): 41100 ng/g
concentration at 3 h ([1]; upper eyelid of the undosed right eye (OD), topical, OD (undosed eye), 3 h, read-out: DHA in upper eyelid): 5800 ng/g
concentration at 6 h ([1]; upper eyelid of the undosed right eye (OD), topical, OD (undosed eye), 6 h, read-out: DHA in upper eyelid): 7400 ng/g
concentration at 24 h ([1]; upper eyelid of the undosed right eye (OD), topical, OD (undosed eye), 24 h, read-out: DHA in upper eyelid): 5300 ng/g
concentration at 0.5 h ([1]; vitreous humor of the dosed left eye (OS), topical, OS (dosed eye), 0.5 h, read-out: DHA in vitreous humor): 0 ng/mL
concentration at 3 h ([1]; vitreous humor of the dosed left eye (OS), topical, OS (dosed eye), 3 h, read-out: DHA in vitreous humor): 0 ng/mL
concentration at 6 h ([1]; vitreous humor of the dosed left eye (OS), topical, OS (dosed eye), 6 h, read-out: DHA in vitreous humor): 0 ng/mL
concentration at 24 h ([1]; vitreous humor of the dosed left eye (OS), topical, OS (dosed eye), 24 h, read-out: DHA in vitreous humor): 0 ng/mL
concentration at 0.5 h ([1]; vitreous humor of the undosed right eye (OD), topical, OD (undosed eye), 0.5 h, read-out: DHA in vitreous humor): 0 ng/mL
concentration at 3 h ([1]; vitreous humor of the undosed right eye (OD), topical, OD (undosed eye), 3 h, read-out: DHA in vitreous humor): 0 ng/mL
concentration at 6 h ([1]; vitreous humor of the undosed right eye (OD), topical, OD (undosed eye), 6 h, read-out: DHA in vitreous humor): 0 ng/mL
concentration at 24 h ([1]; vitreous humor of the undosed right eye (OD), topical, OD (undosed eye), 24 h, read-out: DHA in vitreous humor): 0 ng/mL
OD/OS retina ratio of DHA ([1]; 0 h (baseline)): 100%
OD/OS retina ratio of DHA ([1]; 0.5 h): 64%
OD/OS retina ratio of DHA ([1]; 3 h): 146%
OD/OS retina ratio of DHA ([1]; 6 h): 99%
OD/OS retina ratio of DHA ([1]; 24 h): 75%
Calculated Concentration, endogenous DHA in cornea ([2]; double blank samples): BLQ
Calculated Concentration, endogenous DHA in plasma ([2]; double blank samples): 0.5 µg/mL and 0.6 µg/mL
Calculated Concentration, endogenous DHA in retina ([2]; double blank samples): 16 µg/g and 17 µg/g
Calculated Concentration, endogenous DHA in upper eyelid ([2]; double blank samples): BLQ
Calculated Concentration, endogenous DHA in vitreous humor ([2]; double blank samples): BLQ
Baseline endogenous concentration in brain [3]: 20758 ng/g
Baseline endogenous concentration in cerebrospinal fluid [3]: BLQ
Baseline endogenous concentration in eye tissue homogenate including (Retina, optic nerve, ocular muscle) [3]: 2643.5 ng/g
Baseline endogenous concentration in plasma [3]: 122.1 ng/mL
Drug Concentration in Plasma ([4]; 0 h, DHA 6092 μg to periorbital skin of left eye): BLQ
Drug Concentration in Plasma ([4]; 1 h, DHA 6092 μg to periorbital skin of left eye): BLQ
Percentage of administered dose delivered to the brain ([4]; 3 h, DHA 6092 μg periorbital, whole brain estimate): 5.1%
% of administered dose: Cerebrospinal fluid [4, 7]: 0%
% of administered dose: brain-left [4, 7]: 6%
% of administered dose: brain-right [4, 7]: 4%
% of administered dose: inferior rectus muscle-left [4, 7]: 0.004%
% of administered dose: inferior rectus muscle-right [4, 7]: 0.01%
% of administered dose: lateral rectus muscle-left [4, 7]: 0.02%
% of administered dose: lateral rectus muscle-right [4, 7]: 0.03%
% of administered dose: medial rectus muscle-left [4, 7]: 0.01%
% of administered dose: medial rectus muscle-right [4, 7]: 0.01%
% of administered dose: optic nerve-left [4, 7]: 0.03%
% of administered dose: optic nerve-right [4, 7]: 0.05%
% of administered dose: retina-left [4, 7]: 0.2%
% of administered dose: retina-right [4, 7]: 0.1%
% of administered dose: superior rectus muscle-left [4, 7]: 0.01%
% of administered dose: superior rectus muscle-right [4, 7]: 0%
Drug Concentration in Plasma [4, 7]: BLQ
concentration at 3 h ([4]; brain (average of left and right halves), 3 h, DHA 6092 μg to periorbital skin of left eye, read-out: Average DHA present in the brain (left and right halves)): 26000 ng/g
concentration at 3 h ([4]; brain, left half, 3 h, DHA 6092 μg to periorbital skin of left eye, read-out: Drug Concentration in Tissue: brain-left): 27100 ng/g
concentration at 3 h ([4]; brain, right half, 3 h, DHA 6092 μg to periorbital skin of left eye, read-out: Drug Concentration in Tissue: brain-right): 24800 ng/g
concentration at 3 h ([4]; cerebrospinal fluid, 3 h, DHA 6092 μg to periorbital skin of left eye, read-out: Drug Concentration in Tissue: Cerebrospinal fluid): 0 ng/g
concentration at 3 h ([4]; inferior rectus muscle, left (dosed side), 3 h, DHA 6092 μg to periorbital skin of left eye, read-out: Drug Concentration in Tissue: inferior rectus muscle-left): 2750 ng/g
concentration at 3 h ([4]; inferior rectus muscle, right (undosed side), 3 h, DHA 6092 μg to periorbital skin of left eye, read-out: Drug Concentration in Tissue: inferior rectus muscle-right): 2340 ng/g
concentration at 3 h ([4]; lateral rectus muscle, right, 3 h, DHA 6092 μg to periorbital skin of left eye, read-out: Drug Concentration in Tissue: lateral rectus muscle-right): 1980 ng/g
concentration at 3 h ([4]; lateral rectus muscle, 3 h, DHA 6092 μg to periorbital skin of left eye, read-out: Drug Concentration in Tissue: lateral rectus muscle-left): 8100 ng/g
concentration at 3 h ([4]; medial rectus muscle, left (dosed side), 3 h, DHA 6092 μg to periorbital skin of left eye, read-out: Drug Concentration in Tissue: medial rectus muscle-left): 2720 ng/g
concentration at 3 h ([4]; medial rectus muscle, right, 3 h, DHA 6092 μg to periorbital skin of left eye, read-out: Drug Concentration in Tissue: medial rectus muscle-right): 1520 ng/g
concentration at 3 h ([4]; optic nerve, left (dosed side), 3 h, DHA 6092 μg to periorbital skin of left eye, read-out: Drug Concentration in Tissue: optic nerve-left): 10400 ng/g
concentration at 3 h ([4]; optic nerve, right (undosed side), 3 h, DHA 6092 μg to periorbital skin of left eye, read-out: Drug Concentration in Tissue: optic nerve-right): 15300 ng/g
concentration at 3 h ([4]; retina, left (dosed side), 3 h, DHA 6092 μg to periorbital skin of left eye, read-out: Drug Concentration in Tissue: retina-left): 61700 ng/g
concentration at 3 h ([4]; retina, right (undosed side), 3 h, DHA 6092 μg to periorbital skin of left eye, read-out: Drug Concentration in Tissue: retina-right): 42100 ng/g
concentration at 3 h ([4]; superior rectus muscle, right, 3 h, DHA 6092 μg to periorbital skin of left eye, read-out: Drug Concentration in Tissue: superior rectus muscle-right): 0 ng/g
concentration at 3 h ([4]; superior rectus muscle, 3 h, DHA 6092 μg to periorbital skin of left eye, read-out: Drug Concentration in Tissue: superior rectus muscle-left): 3050 ng/g
SMILES: CC/C=C\C/C=C\C/C=C\C/C=C\C/C=C\C/C=C\CCC(=O)O [DHA, docosahexaenoic acid]
Endogenous levels of DHA in monkey ocular tissues ([2]; LLOQ=0.5 μg/mL): mostly below the lower limit of quantification (LLOQ=0.5 μg/mL) or negligible
Share of orally administered DHA delivered to the brain or CNS [5]: about 0.025%
